Results on three molecules are retold here after patent US11459338B2, “Heterocyclic compounds as PRMT5 inhibitors” (JUBILANT EPISCRIBE LLC, priority 2018, dated 2022).

Where two headings read alike, the source gives them in different places.

One test relates to Z-138 cells. The test can be described thus: Z-138 long term proliferation assay (Cell Titer Glo). Format: cell-based. The settings on record: Homo sapiens; for GI50: 192 h, Z-138 cells, cell viability, day 8, read-out: PRMT5 Z138 GI50 Day 8 μM. An outline of the steps: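 Z-138 cells exposed to ten-point 3-fold dilutions (top 10 μM, 0.3% DMSO) for 96 h at 37° C., 5% CO2, then re-dosed for four more days.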
Background: ATP-based viability assays read luminescence as a measure of living cells.

The subject of test [1] is Symmetric di-methyl arginine in Z-138 cells. The test can be described thus: Z-138 methylation assay, ELISA for detection of symmetric di-methyl arginine. The class given is cell-based. The settings on record: Homo sapiens. (An ELISA detects its analyte on a solid surface through an enzyme-linked reagent.)
In a further test the target is T1, PRMT5/MEP50 (Homo sapiens, UniProt O14744).
T1 construct: Full-length human PRMT5 (NP_006100)
In words: PRMT5/MEP50 enzyme assay on peptide substrates (3H-SAM Flashplate). The class given is biochemical. The settings on record: PRMT5/MEP50 10 nM, H4 1-15aa peptide 100 nM, 3H-SAM 1 μM.

[2] abbreviates: Z-138 cells, 96 h (day 4), read-out: PRMT5 Z138 SDMA ELISA Day 4 μM.

T1 sequence (O14744 whole entry): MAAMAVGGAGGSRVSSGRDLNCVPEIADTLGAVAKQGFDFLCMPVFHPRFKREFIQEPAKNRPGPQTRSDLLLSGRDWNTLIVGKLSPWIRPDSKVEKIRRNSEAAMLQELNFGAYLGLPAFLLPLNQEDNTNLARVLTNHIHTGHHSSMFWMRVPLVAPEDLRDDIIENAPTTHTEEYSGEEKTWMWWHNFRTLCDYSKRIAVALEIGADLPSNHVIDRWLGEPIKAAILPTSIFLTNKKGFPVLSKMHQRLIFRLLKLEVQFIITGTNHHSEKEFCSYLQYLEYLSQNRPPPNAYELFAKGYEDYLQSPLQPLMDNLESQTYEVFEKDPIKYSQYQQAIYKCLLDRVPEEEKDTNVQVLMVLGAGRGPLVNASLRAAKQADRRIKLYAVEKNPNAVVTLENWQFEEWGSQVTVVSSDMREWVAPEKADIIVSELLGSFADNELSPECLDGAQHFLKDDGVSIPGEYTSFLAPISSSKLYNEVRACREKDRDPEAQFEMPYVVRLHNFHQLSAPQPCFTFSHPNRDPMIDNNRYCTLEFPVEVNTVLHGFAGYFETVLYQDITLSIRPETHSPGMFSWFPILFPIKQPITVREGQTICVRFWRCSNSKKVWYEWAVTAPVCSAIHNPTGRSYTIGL
T1 sequence (Q9BQA1 whole entry partner): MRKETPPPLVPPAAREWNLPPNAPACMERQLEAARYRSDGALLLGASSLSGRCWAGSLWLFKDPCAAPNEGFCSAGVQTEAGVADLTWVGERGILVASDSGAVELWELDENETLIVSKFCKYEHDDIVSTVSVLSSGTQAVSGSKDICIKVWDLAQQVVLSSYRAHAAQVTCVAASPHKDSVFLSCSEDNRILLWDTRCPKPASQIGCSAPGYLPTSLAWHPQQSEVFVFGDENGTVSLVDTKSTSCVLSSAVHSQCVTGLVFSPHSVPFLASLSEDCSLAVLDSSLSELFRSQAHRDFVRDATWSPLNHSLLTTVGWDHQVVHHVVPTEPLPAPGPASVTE

Usually GI50 stands for the concentration giving 50% growth inhibition. For the molecule `CC1CCn2cc(C(=O)NCC(O)CN3CCc4ccccc4C3)nc2C1` (centres unmarked) [Example 103, N-(3-(3,4-dihydroisoquinolin-2(1H)-yl)-2-hydroxypropyl)-7-methyl-5,6,7,8-tetrahydroimidazo[1,2-a]pyridine-2-carboxamide], the GI50 with Z-138 cells lay in the range of 10 to 1000 nM. The results for the IC50 (in test [1] (setting [2]); against PRMT5/MEP50) were 10 to 1000 nM and 1000 to 5000 nM, respectively.

On to `Cc1noc(C)c1-c1ccc2nc(C(=O)NC[C@H](O)CN3CCc4ccccc4C3)cn2c1` [Example 15, (S)—N-(3-(3,4-dihydroisoquinolin-2(1H)-yl)-2-hydroxypropyl)-6-(3,5-dimethylisoxazol-4-yl)imidazo[1,2-a]pyridine-2-carboxamide], for which the concentration for 50% growth inhibition (GI50) with Z-138 cells is 10 to 1000 nM. The IC50 in the test on Z-138 cells (Z-138, 192 h, summary of Table 1, read-out: IC50 value (all the three assays): Z138 GI50 Day 8) lay within 10 to 1000 nM; in test [1] (Z-138, 96 h, summary of Table 1, read-out: IC50 value (all the three assays): Z138 SDMA ELISA Day 4), 10 to 1000 nM; in test [1] (setting [2]), 10 to 1000 nM; against PRMT5/MEP50 it was 10 to 1000 nM.

Regarding `Cn1cc(C2CCc3nc(C(=O)NCC(O)CN4CCc5ccccc5C4)cn3C2)cn1` (centres unmarked) [Example 111, N-(3-(3,4-dihydroisoquinolin-2(1H)-yl)-2-hydroxypropyl)-6-(1-methyl-1H-pyrazol-4-yl)-5,6,7,8-tetrahydroimidazo[1,2-a]pyridine-2-carboxamide], the GI50 in the test on Z-138 cells fell in the range of 1000 to 5000 nM. In addition, the IC50 in test [1] (setting [2]) fell in the range of 10 to 1000 nM; at PRMT5/MEP50, 1000 to 5000 nM.
